For 28 compounds, IC50 results are on record in US20090018134A1, “Compounds - 945” (AstraZeneca AB, priority 2007, published 2009).

The target in one experiment is T1, mTOR (Homo sapiens, UniProt P42345).
T1 construct: FLAG; made in house
T1 sequence (P42345 1362-2549): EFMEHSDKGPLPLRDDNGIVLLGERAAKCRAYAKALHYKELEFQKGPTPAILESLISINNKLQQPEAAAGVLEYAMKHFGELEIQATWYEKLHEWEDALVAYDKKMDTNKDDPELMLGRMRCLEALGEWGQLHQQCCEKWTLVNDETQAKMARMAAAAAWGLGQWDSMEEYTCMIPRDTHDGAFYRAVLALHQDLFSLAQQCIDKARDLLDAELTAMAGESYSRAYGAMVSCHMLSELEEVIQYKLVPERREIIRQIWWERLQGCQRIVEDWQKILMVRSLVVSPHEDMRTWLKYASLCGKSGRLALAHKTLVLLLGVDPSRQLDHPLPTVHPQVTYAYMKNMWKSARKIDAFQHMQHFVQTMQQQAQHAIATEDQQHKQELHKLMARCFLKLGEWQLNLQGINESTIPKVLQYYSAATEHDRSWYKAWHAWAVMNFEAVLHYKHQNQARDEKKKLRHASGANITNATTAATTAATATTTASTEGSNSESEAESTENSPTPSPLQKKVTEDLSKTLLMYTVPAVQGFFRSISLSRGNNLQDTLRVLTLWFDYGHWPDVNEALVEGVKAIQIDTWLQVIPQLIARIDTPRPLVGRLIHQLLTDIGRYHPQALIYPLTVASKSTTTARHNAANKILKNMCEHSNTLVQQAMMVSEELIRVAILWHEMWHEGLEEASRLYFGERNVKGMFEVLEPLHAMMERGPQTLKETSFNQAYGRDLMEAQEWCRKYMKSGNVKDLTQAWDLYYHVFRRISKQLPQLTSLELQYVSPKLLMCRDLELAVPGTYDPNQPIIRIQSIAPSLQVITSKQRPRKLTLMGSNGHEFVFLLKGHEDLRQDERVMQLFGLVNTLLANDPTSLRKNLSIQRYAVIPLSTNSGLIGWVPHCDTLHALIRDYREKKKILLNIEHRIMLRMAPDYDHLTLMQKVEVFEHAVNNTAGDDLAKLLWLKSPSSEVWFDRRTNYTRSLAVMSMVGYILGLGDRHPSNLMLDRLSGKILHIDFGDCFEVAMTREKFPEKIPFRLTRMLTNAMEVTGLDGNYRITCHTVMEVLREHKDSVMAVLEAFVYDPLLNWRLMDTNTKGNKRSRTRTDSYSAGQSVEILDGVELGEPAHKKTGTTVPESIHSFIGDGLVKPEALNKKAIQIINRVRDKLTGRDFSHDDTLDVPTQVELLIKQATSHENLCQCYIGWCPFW
The experiment is described as follows: In Vitro mTOR Kinase Assay (Echo), Test (a)(ii). It is filed as biochemical. Conditions: read-out: mTOR Kinase Assay (Echo). Summed up:
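Enzyme: HEK293-expressed, FLAG-purified mTOR C-terminal fragment (aa 1362-2549). Rxn 2 h RT with biotinylated peptide, stopped with EDTA 50 mM/BSA/Tris pH 7.4. Detection: T389 phospho-antibody AlphaScreen, 680 nm excitation. IC50.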
Regarding `CC(C)CNC(=O)Nc1ccc(-c2nc(N3CCOC[C@@H]3C)cc(C3(S(=O)(=O)C4CC4)CC3)n2)cc1` [Example 3c, 1-[4-[4-(1-cyclopropylsulfonylcyclopropyl)-6-[(3S)-3-methylmorpholin-4-yl]pyrimidin-2-yl]phenyl]-3-(2-methylpropyl)urea], the IC50 was found to be 12.4 nM. Consider `C[C@H]1COCCN1c1cc(C2(S(=O)(=O)C3CC3)CC2)nc(-c2ccc(NC(=O)NC3CCC3)cc2)n1` [Example 3a, 3-cyclobutyl-1-[4-[4-(1-cyclopropylsulfonylcyclopropyl)-6-[(3S)-3-methylmorpholin-4-yl]pyrimidin-2-yl]phenyl]urea], for which the IC50 came to 4.45 nM. The same measure, in the same setting: the result for `CS(=O)(=O)C1(c2cc(N3CCOCC3)nc(-c3ccc(NC(=O)NC4CCC4)cc3)n2)CC1` [Example 12c, 3-cyclobutyl-1-[4-[4-(1-methylsulfonylcyclopropyl)-6-morpholin-4-ylpyrimidin-2-yl]phenyl]urea] reads 1.52 nM.

The same experiment, now with this note: table of enzyme assay Test (a)(ii); read-out: Test (a)(ii) IC50.
Consider `CCNC(=O)Nc1ccc(-c2nc(N3CCOC[C@@H]3C)cc(C3(S(=O)(=O)c4c(F)cccc4F)CC3)n2)cc1` [Example 86a, 1-[4-[4-[1-(2,6-difluorophenyl)sulfonylcyclopropyl]-6-[(3S)-3-methylmorpholin-4-yl]pyrimidin-2-yl]phenyl]-3-ethylurea], for which the IC50 was 5.22 nM. The same measure, in the same setting: in the case of `C[C@H]1COCCN1c1cc(C2(S(=O)(=O)c3ccccc3)CC2)nc(-c2ccc(NC(=O)Nc3ncco3)cc2)n1` [Example 36dy, 1-[4-[4-[1-(benzenesulfonyl)cyclopropyl]-6-[(3S)-3-methylmorpholin-4-yl]pyrimidin-2-yl]phenyl]-3-(1,3-oxazol-2-yl)urea] it was 6.36 nM; in that of `CNC(=O)Nc1ccc(-c2nc(N3CCOC[C@@H]3C)cc(C3(S(C)(=O)=O)CCCC3)n2)cn1` [Example 14o, 3-methyl-1-[5-[4-[(3S)-3-methylmorpholin-4-yl]-6-(1-methylsulfonylcyclopentyl)pyri-midin-2-yl]pyridin-2-yl]urea], 21.7 nM; in that of `CCNC(=O)Nc1ccc(-c2nc(N3CCOC[C@@H]3C)cc(C3(S(=O)(=O)CCCO)CCC3)n2)cc1` [Example 43j, 1-ethyl-3-[4-[4-[1-(3-hydroxypropylsulfonyl)cyclobu-tyl]-6-[(3S)-3-methylmorpholin-4-yl]pyrimidin-2-yl]phenyl]urea], 12 nM. The same measure, in the same setting: the result for `CNC(=O)Nc1ccc(-c2nc(N3CCOC[C@@H]3C)cc(C3(S(=O)(=O)CCOC)CC3)n2)cc1` [Example 51, 1-[4-[4-[1-(2-Methoxyethylsulfonyl)cyclopropyl]-6-[(3S)-3-methylmorpholin-4-yl]pyrimidin-2-yl]phenyl]-3-methylurea] reads 3.32 nM; that for `Cn1cc(NC(=O)Nc2ccc(-c3nc(N4CCOCC4)cc(C4(S(=O)(=O)c5ccccc5)CC4)n3)cc2)cn1` [Example 36dj, 3-[4-[4-[1-(benzenesulfonyl)cyclopropyl]-6-morpholin-4-ylpyrimidin-2-yl]phenyl]-1-(1-methylpyrazol-4-yl)urea], 8.91 nM. Same read-out and setting: the result for `CCNC(=O)Nc1ccc(-c2nc(N3CCOC[C@@H]3C)cc(C3(S(=O)(=O)c4ccc(C#N)cc4Cl)CC3)n2)cc1` [Example 85f, 3-[4-[4-[1-(2-chloro-4-cyanophenyl)sulfonylcyclopropyl]-6-[(3S)-3-methylmorpholin-4-yl]pyrimidin-2-yl]phenyl]-1-ethylurea] reads 20.2 nM; that for `C[C@H]1COCCN1c1cc(C2(S(=O)(=O)C3CCCCC3)CC2)nc(-c2ccc(NC(=O)NC3CCC3)cc2)n1` [Example 26a, 3-cyclobutyl-1-[4-[4-(1-cyclohexylsulfonylcyclopropyl)-6-[(3S)-3-methylmorpholin-4-yl]pyrimidin-2-yl]phenyl]urea], 6.72 nM.

For the compound `Cc1nn(C(F)F)c(C)c1S(=O)(=O)C1(c2cc(N3CCOC[C@@H]3C)nc(-c3ccc(NC(=O)NCCF)cc3)n2)CC1` [Example 75e, 1-[4-[4-[1-[1-(difluoromethyl)-3,5-dimethylpyrazol-4-yl]sulfonylcyclopropyl]-6-[(3S)-3-methylmorpholin-4-yl]pyrimidin-2-yl]phenyl]-3-(2-fluoroethyl)urea], the IC50 was found to be 37 nM. Same read-out and setting: the result for `C[C@H]1COCCN1c1cc(C2(S(=O)(=O)c3ccccc3)CCCC2)nc(-c2ccc(NC(=O)NCCO)cc2)n1` [Example 36bx, 1-[4-[4-[1-(benzenesulfonyl)cyclopentyl]-6-[(3S)-3-methylmorpholin-4-yl]pyrimidin-2-yl]phenyl]-3-(2-hydroxyethyl)urea] reads 2.69 nM; that for `C[C@H]1COCCN1c1cc(C2(S(=O)(=O)CCC(C)(C)O)CC2)nc(-c2ccc(NC(=O)Nc3cnn(C)c3)cc2)n1` [Example 79e, 1-[4-[4-[1-(3-hydroxy-3-methylbutyl)sulfonylcyclopropyl]-6-[(3S)-3-methylmorpholin-4-yl]pyrimidin-2-yl]phenyl]-3-(1-methylpyrazol-4-yl)urea], 25.9 nM; that for `C[C@H]1COCCN1c1cc(C2(S(=O)(=O)c3cnn(C(F)F)c3)CC2)nc(-c2ccc(NC(=O)NCCO)cc2)n1` [Example 64al, 1-[4-[4-[1-[1-(difluoromethyl)pyrazol-4-yl]sulfonylcyclopropyl]-6-[(3S)-3-methylmorpholin-4-yl]pyrimidin-2-yl]phenyl]-3-(2-hydroxyethyl)urea], 5.58 nM. Same read-out and setting: in the case of `Cc1cc(F)ccc1S(=O)(=O)C1(c2cc(N3CCOC[C@@H]3C)nc(-c3ccc(NC(=O)NC4CC4)cc3)n2)CC1` [Example 82a, 3-cyclopropyl-1-[4-[4-[1-(4-fluoro-2-methylphenyl)sulfonylcyclopropyl]-6-[(3S)-3-methylmorpholin-4-yl]pyrimidin-2-yl]phenyl]urea] it was 26.5 nM.

Regarding `C[C@H]1COCCN1c1cc(C2(S(=O)(=O)CCO)CC2)nc(-c2ccc(NC(=O)Nc3ncns3)cc2)n1` [Example 16c, 1-[4-[4-[1-(2-hydroxyethylsulfonyl)cyclopropyl]-6-[(3S)-3-methylmorpholin-4-yl]pyrimidin-2-yl]phenyl]-3-(1,2,4-thiadiazol-5-yl)urea], the IC50 stood at 1.6 nM.

Regarding “3-(3-hydroxypropyl)-1-[4-[4-[1-(3-hydroxypropylsulfonyl)cyclopro-pyl]-6-[(3S)-3-methylmorpholin-4-yl]pyrimidin-2-yl]phenyl]thiourea [Example 37f]”, the IC50 was found to be 120 nM.

As to `C[C@H]1COCCN1c1cc(C2(S(C)(=O)=O)CCNCC2)nc(-c2ccc(NC(=O)NCCN(C)C)cc2)n1` [Example 20b, 3-(2-dimethylaminoethyl)-1-[4-[4-[(3S)-3-methylmorpholin-4-yl]-6-(4-methylsulfonylpiperidin-4-yl)pyrimidin-2-yl]phenyl]urea], the IC50 is 874 nM. On to `CCNC(=O)Nc1ccc(-c2nc(N3CCOC[C@@H]3C)cc(C3(S(=O)(=O)c4cn(C)nc4C)CC3)n2)cc1` [Example 55e, 3-[4-[4-[1-(1,3-dimethylpyrazol-4-yl)sulfonylcyclopropyl]-6-[(3S)-3-methylmorpholin-4-yl]pyrimidin-2-yl]phenyl]-1-ethylurea], for which the IC50 turned out to be 20.4 nM. Still for that read-out and setting: the result for `C[C@H]1COCCN1c1cc(C2(S(=O)(=O)CCCO)CC2)nc(-c2ccc(NC(=O)Nc3ccc(C(F)(F)F)cc3)cc2)n1` [Example 31h, 1-[4-[4-[1-(3-hydroxypropylsulfonyl)cyclopropyl]-6-[(3S)-3-methylmorpholin-4-yl]pyrimidin-2-yl]phenyl]-3-[4-(trifluoromethyl)phenyl]urea] reads 0.209 nM; that for `C[C@H]1COCCN1c1cc(C2(S(=O)(=O)c3ccccc3)CCC2)nc(-c2ccc(NC(=O)NCCC#N)cc2)n1` [Example 36dt, 1-[4-[4-[1-(benzenesulfonyl)cyclobutyl]-6-[(3S)-3-methylmorpholin-4-yl]pyrimidin-2-yl]phenyl]-3-(2-cyanoethyl)urea], 0.37 nM.

On to `CNC(=O)Nc1ccc(-c2nc(N3CCOC[C@@H]3C)cc(C3(S(=O)(=O)c4ccc(OC(F)F)cc4)CC3)n2)cc1` [Example 64a, 1-[4-[4-[1-[4-(difluoromethoxy)phenyl]sulfonyl-cyclopropyl]-6-[(3S)-3-methylmorpholin-4-yl]pyrimidin-2-yl]phenyl]-3-methylurea], for which the IC50 worked out at 5.2 nM. On the same count and under the same terms, in the case of `C[C@H]1COCCN1c1cc(C2(S(=O)(=O)CCCO)CCC2)nc(-c2ccc(NC(=O)NCCO)cc2)n1` [Example 43b, 3-(2-hydroxyethyl)-1-[4-[4-[1-(3-hydroxypropylsulfonyl)cyclobu-tyl]-6-[(3S)-3-methylmorpholin-4-yl]pyrimidin-2-yl]phenyl]urea] it was 7.51 nM; in that of `C[C@H]1COCCN1c1cc(C2(S(=O)(=O)c3cc(F)cc(F)c3)CCN(Cc3ccccc3)CC2)nc(-c2ccc(NC(=O)NC3CC3)cc2)n1` [Example 22, 1-[4-[4-[1-Benzyl-4-(3,5-difluorophenyl)sulfonylpiperidin-4-yl]-6-[(3S)-3-methylmorpholin-4-yl]pyrimidin-2-yl]phenyl]-3-cyclopropylurea], 503 nM; in that of `CS(=O)(=O)C1(c2cc(N3CCOCC3)nc(-c3ccc(NC(=O)NC4CCC4)cc3)n2)CC1` [Example 12c, 3-cyclobutyl-1-[4-[4-(1-methylsulfonylcyclopropyl)-6-morpholin-4-ylpyrimidin-2-yl]phenyl]urea], 7.51 nM. On the same count and under the same terms, the result for `C[C@@H](CO)NC(=O)Nc1ccc(-c2nc(N3CCOC[C@@H]3C)cc(C3(S(=O)(=O)C4CC4)CCC3)n2)cc1` [Example 64x, 1-[4-[4-(1-cyclopropylsulfonylcyclobutyl)-6-[(3S)-3-methylmorpholin-4-yl]pyrimidin-2-yl]phenyl]-3-[(2S)-1-hydroxypropan-2-yl]urea] reads 7.61 nM. Same read-out and setting: in the case of `CC(C)NC(=O)Nc1ccc(-c2nc(N3CCOC[C@@H]3C)cc(C3(S(=O)(=O)C(C)(C)C)CC3)n2)cc1` [Example 18d, 1-[4-[4-(1-tert-butylsulfonylcyclopropyl)-6-[(3S)-3-methylmorpholin-4-yl]pyrimidin-2-yl]phenyl]-3-propan-2-ylurea] it was 15.1 nM. Take `C[C@H]1COCCN1c1cc(C2(S(=O)(=O)c3ccccc3)CCC2)nc(-c2ccc(NC(=O)Nc3cnn(C)c3)cc2)n1` [Example 36bv, 1-[4-[4-[1-(benzenesulfonyl)cyclobutyl]-6-[(3S)-3-methylmorpholin-4-yl]pyrimidin-2-yl]phenyl]-3-(1-methylpyrazol-4-yl)urea]: the IC50 was 2.64 nM.
